Source: publication PMC7696185, “Synthesis of New 1, 3, 4-Oxadiazole-Incorporated 1, 2, 3-Triazole Moieties as Potential Anticancer Agents Targeting Thymidylate Synthase and Their Docking Studies” (Pharmaceuticals, 2020)
Where two headings read alike, the source gives them in different places.

How the values were obtained:
[1] = test system: MCF-7 cells; assay: MTT cytotoxicity assay, MCF-7; type: cell-based, human; details: for IC50: Homo sapiens, MCF7, breast cancer MCF-7, MTT, 72 h
Experimental: (§1) These compounds were tested against breast MCF-7 and colorectal HCT-116 cell lines.
The human breast cancer cell line (MCF-7) used in the present study was obtained from Dr. Neamatallah’s lab. The cells were cultured in Dulbecco’s Modified Eagle Medium (DMEM) supplemented with 10% (v/v) fetal bovine serum (FBS), 10,000 units/mL penicillin/streptomycin, and 1% (v/v) L-glutamine at 37 °C in humidified 5% CO2 incubator.
(§2) The cytotoxicity activity was done by MTT assay. Breast MCF-7 and colorectal HCT-116 cancer cells were added at 1 × 10^5 cells/mL into a 96-well plate with three replicates, and incubated overnight for attachment at 37 °C in a 5% CO2 humidified atmosphere. Drug concentrations at six serial dilutions (100.0, 50.0, 10.0, 1.0, 0.5, and 0.1 μM) were added in triplicate and incubated at 37 °C and 5% CO2 for 72 h. Drugs were dissolved in 0.1% DMSO as a vehicle. Untreated cells were used as control. […] Thereafter, each well for each time point was removed and replaced with […] of full medium containing 10% 3-(4,5- dimethylthiaxolyl-2)-2,5-diphenyltetrazoliumbromide (MTT) (10 mg/mL). Then the media was removed and 100 µl of DMSO was added, and cells were incubated for a further 5 mins at 37 °C and 5% CO2. Plates were quantified using the SpectraMax M3 plate reader at 570 nm. The percentage inhibition was calculated as 100 − ((mean OD of treated cell × 100)/Mean OD of vehicle treated cells (DMSO)). All the experiments were repeated in at least three independent experiments (Table 2, Figure 3, Figure 4, Figure 5 and Figure 6).

[2] = target: thymidylate synthase (TS) (Homo sapiens, UniProt P04818); assay: In vitro thymidylate synthase enzyme assay; type: biochemical; details: for fold activity compared to pemetrexed, TS: ratio of IC50, TS enzyme
Experimental: The inhibition of this enzyme plays a vital role in chemotherapy treatment. […] This inactivation of dTMP results in a reduction of deoxythymidine triphosphate (dTTP), leading to the disruption of DNA synthesis and cessation of cell growth and proliferation (Figure 7).
A thymidylate synthase enzymatic assay was carried out according to the reported method. It involves a mixture containing 2-mercaptoethanol (0.1 M), (6R,S)-tetrahydrofolate (0.0003 M), formaldehyde (0.012 M), MgCl2 (0.02 M), dUMP (0.001 M), TrisHCl (0.04 M), and NaEDTA (0.00075 M).This assay was done spectrophotometrically at 30° C and pH 7.4. The reaction was initiated by the addition of an amount of enzyme, giving a change in absorbance at 340 nm of 0.016/min in the absence of inhibitor. The percent inhibition was determined at a minimum of four inhibitor concentrations within 20% of the 50% point.

[3] = test system: HCT-116 cells; assay: MTT cytotoxicity assay, HCT-116; type: cell-based, human; details: for IC50: colorectal cancer HCT-116, MTT, 72 h; for fold activity compared to 5-fluorouracil, HCT-116 / fold activity compared to tamoxifen, HCT-116: ratio of IC50, HCT-116
Experimental: as §1, §2

[4] = test system: HEK 293 cells; assay: MTT assay on non-tumorigenic cell line HEK 293; type: cell-based; details: HEK293, normal human embryonic kidney cells
[5] = spectrophotometric, 340 nm, 30 °C, pH 7.4, read-out: IC50 thymidylate synthase

thymidylate synthase (TS), sequence (P04818 whole entry): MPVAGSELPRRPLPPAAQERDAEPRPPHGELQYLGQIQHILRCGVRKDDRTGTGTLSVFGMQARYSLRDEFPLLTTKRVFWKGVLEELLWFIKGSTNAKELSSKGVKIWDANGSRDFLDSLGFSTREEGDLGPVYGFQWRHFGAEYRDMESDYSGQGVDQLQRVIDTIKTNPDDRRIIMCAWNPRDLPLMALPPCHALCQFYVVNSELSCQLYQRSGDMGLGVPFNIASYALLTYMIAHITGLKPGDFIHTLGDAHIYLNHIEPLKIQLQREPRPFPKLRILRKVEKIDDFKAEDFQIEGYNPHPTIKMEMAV

| Compound | melting point [°C] | IC50 [1] [µM] | IC50 ([3]; Homo sapiens, HCT-116, 72 h) [µM] | other results |
| --- | --- | --- | --- | --- |
| O=c1[nH]cc(F)c(=O)[nH]1 [Compound 5-FU, 5-fluorouracil, reference compound] | – | 24.7 | 32.7 | – |
| Clc1ccc(-n2cc(CSc3nnc(-c4ccccc4)o3)nn2)cc1 [Compound 9, 4-((5-phenyl–1,3,4-oxadiazol-2-ylthio)methyl)–1-(4-chlorophenyl)-1H–1,2,3-triazole] | 200 to 202 | 34.4 | 36.7 | – |
| Cc1ccc(-n2cc(CSc3nnc(-c4ccccc4)o3)nn2)cc1 [Compound 6, 4-((5-phenyl–1,3,4-oxadiazol–2-ylthio)methyl)-1-p-tolyl–1H-1,2,3-triazole] | – | 79.8 | 89.2 | – |
| Brc1cccc(-n2cc(CSc3nnc(-c4ccccc4)o3)nn2)c1 [Compound 10, 4-((5-phenyl–1,3,4-oxadiazol–2-ylthio)methyl)-1-(3-bromophenyl)-1H–1,2,3-triazole] | 146 to 148 | 25.9 | 32.7 | – |
| c1ccc(-c2nnc(SCc3cn(-c4ccccc4)nn3)o2)cc1 [Compound 12, 4-((5-phenyl–1,3,4-oxadiazol–2-ylthio)methyl)-1-phenyl-1H–1,2,3-triazole] | – | 5.8 | 14.8 | fold activity compared to 5-fluorouracil, MCF-7 ([1]; ratio of IC50, MCF-7): four-fold; fold activity compared to pemetrexed, TS [2]: 2.6 fold; IC50 [2, 5]: 2.52 µM; fold activity compared to 5-fluorouracil, HCT-116 [3]: 2.2 fold; fold activity compared to tamoxifen, HCT-116 [3]: 1.7 fold; IC50 [4]: > 50 µM |
| Nc1nc2[nH]cc(CCc3ccc(C(=O)N[C@@H](CCC(=O)O)C(=O)O)cc3)c2c(=O)[nH]1 [PTX, pemetrexed, reference compound] | – | – | – | IC50 [2]: 6.75 µM |
| Cc1ccccc1-n1cc(CSc2nnc(-c3ccccc3)o2)nn1 [Compound 7, 4-((5-phenyl–1,3,4-oxadiazol-2-ylthio)methyl)–1-o-tolyl-1H–1,2,3-triazole] | – | 30.7 | 34.3 | – |
| Clc1ccccc1-n1cc(CSc2nnc(-c3ccccc3)o2)nn1 [Compound 8, 4-((5-phenyl–1,3,4-oxadiazol–2-ylthio)methyl)–1-(2-chlorophenyl)-1H–1,2,3-triazole] | 111 to 112 | 73.3 | > 100 | IC50 [3]: 108 µM |

Further lines, with some results ahead:

| melting point [°C] | Compound | IC50 [1] [µM] | IC50 ([3]; Homo sapiens, HCT-116, 72 h) [µM] | other results |
| --- | --- | --- | --- | --- |
| 119 to 120 | COC(=O)c1ccccc1-n1cc(CSc2nnc(-c3ccccc3)o2)nn1 [Compound 13, Methyl 2-(4-((5-phenyl–1,3,4-oxadiazol-2-ylthio)methyl)-1H–1,2,3-triazol–1-yl)benzoate] | 1.26 | 17.3 | fold activity compared to tamoxifen, MCF-7 ([1]; ratio of IC50, MCF-7): five times; fold activity compared to pemetrexed, TS [2]: 1.5 fold; IC50 [2, 5]: 4.38 µM; fold activity compared to 5-fluorouracil, HCT-116 [3]: 1.9 fold; fold activity compared to tamoxifen, HCT-116 [3]: 1.5 fold; IC50 [4]: > 50 µM |
| 119 to 120 | O=C(O)c1ccccc1-n1cc(CSc2nnc(-c3ccccc3)o2)nn1 [Compound 14, 2-(4-((5-phenyl–1,3,4-oxadiazol–2-ylthio)methyl)-1H–1,2,3-triazol–1-yl)benzoic acid] | 40.6 | 46.8 | – |
| 202 to 204 | O=[N+]([O-])c1ccc(-n2cc(CSc3nnc(-c4ccccc4)o3)nn2)cc1 [Compound 11, 4-((5-phenyl–1,3,4-oxadiazol–2-ylthio)methyl)–1-(4-nitrophenyl)-1H–1,2,3-triazole] | 98.2 | > 100 | IC50 [3]: 102 µM |
